Test systems include HOP-92 NSCLC; RXF 393 renal; NCI/ADR-RES ovarian; SF-268 CNS; OVCAR-5 ovarian; A549 NSCLC; COLO 205 colon; SF-295 CNS; SW-620 colon; KM12 colon.
Assay in all cases: NCI anticancer screen, dose series, 48 h

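The compound was tested at five concentrations on cells cultured in 96-well plates, with a 48-hour exposure period. The concentration for 50% growth inhibition is given as GI50. TGI denotes the concentration required for complete inhibition of growth.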

With `Cc1nnc(C[C@@H]2C=C(c3ccc(Cl)cc3)c3ccccc3-n3c(C)nnc32)o1`, the GI50 with HOP-92 NSCLC was 1.96 µM; in the assay with RXF 393 renal it was 1.39 µM; in the assay with NCI/ADR-RES ovarian, 1.86 µM; with SF-268 CNS, 13.1 µM; with OVCAR-5 ovarian it was 4.7 µM; in the assay with A549 NSCLC, 2.61 µM. Further, the GI50 in the assay with COLO 205 colon was 0.296 µM; in the assay with SF-295 CNS, 1.71 µM; with SW-620 colon, 12 µM; with KM12 colon it was 6.25 µM. For the same molecule, the TGI in the assay with HOP-92 NSCLC was above 75.1 µM; with RXF 393 renal, 18.9 µM; in the assay on NCI/ADR-RES ovarian, 43.7 µM; in the assay with SF-268 CNS, 73.5 µM; in the assay on OVCAR-5 ovarian it was above 100 µM; with A549 NSCLC, above 82.2 µM. In addition, the TGI in the assay with COLO 205 colon is 24.1 µM; with SF-295 CNS, 43 µM; in the assay with SW-620 colon it was 68.7 µM; in the assay on KM12 colon, above 100 µM.

The values are drawn from PubChem BioAssay (NCI).
